# Reference: patent US12304916B2, “Thienopyridinyl and thiazolopyridinyl compounds useful as IRAK4 inhibitors” (BRISTOL-MYERS SQUIBB COMPANY, priority 2019, dated 2025)
# Molecular target: IRAK4 (Homo sapiens (Human), UniProt Q9NWZ3)
# Assay: IRAK4 Inhibition Assay
# Assay type: biochemical
# Conditions: ATP 500 μM; IRAK4 0.6 nM; 60 min at room temperature
# Procedure: The assays were performed in U-bottom 384-well plates. The final assay volume was 30 μL prepared from 15 μL additions of enzyme and substrates (fluoresceinated peptide and ATP) and test compounds in assay buffer (20 mM HEPES pH 7.2, 10 mM MgCl2, 0.015% Brij 35 and 4 mM DTT). The reaction was initiated by the combination of IRAK4 with substrates and test compounds. The reaction mixture was incubated at room temperature for 60 min. and terminated by adding 45 μL of 35 mM EDTA to each sample. The reaction mixture was analyzed on the Caliper LABCHIP® 3000 (Caliper, Hopkinton, MA) by electrophoretic separation of the fluorescent substrate and phosphorylated product. Inhibition data were calculated by comparison to no enzyme control reactions for 100% inhibition and vehicle-only reactions for 0% inhibition. The final concentrations of reagents in the assays are ATP, 500 μM; FL-IPTSPITTTYFFFKKK peptide 1.5 μM; IRAK4, 0.6 nM; and DMSO, 1.6%.
# Sequence of IRAK4 (Q9NWZ3 whole entry, species assumed): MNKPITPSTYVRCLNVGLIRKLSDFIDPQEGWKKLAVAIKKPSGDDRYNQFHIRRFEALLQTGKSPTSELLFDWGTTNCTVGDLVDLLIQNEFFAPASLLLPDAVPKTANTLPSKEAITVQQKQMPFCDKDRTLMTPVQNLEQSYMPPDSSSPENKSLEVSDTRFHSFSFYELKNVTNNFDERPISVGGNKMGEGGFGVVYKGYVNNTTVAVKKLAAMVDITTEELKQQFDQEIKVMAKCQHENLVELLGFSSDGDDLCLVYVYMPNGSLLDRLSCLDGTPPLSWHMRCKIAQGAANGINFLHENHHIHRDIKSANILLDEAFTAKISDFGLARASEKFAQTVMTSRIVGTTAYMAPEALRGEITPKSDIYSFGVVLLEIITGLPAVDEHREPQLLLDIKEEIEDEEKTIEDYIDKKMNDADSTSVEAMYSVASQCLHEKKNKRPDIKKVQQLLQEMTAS
row,SMILES,IC50
1,"CC(C)(O)[C@H](F)CNC(=O)c1cnc2sc(-c3ccccc3)nc2c1NC1CC1 [Example 1, (R)-7-(cyclopropylamino)-N-(2-fluoro-3-hydroxy-3-methylbutyl)-2-phenylthiazolo[5,4-b]pyridine-6-carboxamide]",39.5 nM
2,"CC(C)Nc1c(C(=O)NC[C@@H](F)C(C)(C)O)cnc2sc(-c3ccccc3)nc12 [Example 2, (R)-N-(2-fluoro-3-hydroxy-3-methylbutyl)-7-(isopropylamino)-2-phenylthiazolo[5,4-b]pyridine-6-carboxamide]",15.5 nM
3,"CC(C)(O)[C@H](F)CNC(=O)c1cnc2sc(-c3ccccc3)nc2c1NC1CCCC1 [Example 3, (R)-7-(cyclopentylamino)-N-(2-fluoro-3-hydroxy-3-methylbutyl)-2-phenylthiazolo[5,4-b]pyridine-6-carboxamide]",34 nM
4,"CC(C)(O)[C@H](F)CNC(=O)c1cnc2sc(-c3ccccc3)nc2c1NC1CCOCC1 [Example 4, (R)-N-(2-fluoro-3-hydroxy-3-methylbutyl)-2-phenyl-7-((tetrahydro-2H-pyran-4-yl)amino)thiazolo[5,4-b]pyridine-6-carboxamide]",7.9 nM
5,"CCNc1c(C(=O)NC[C@@H](F)C(C)(C)O)cnc2sc(-c3ccccc3)nc12 [Example 5, (R)-7-(ethylamino)-N-(2-fluoro-3-hydroxy-3-methylbutyl)-2-phenylthiazolo[5,4-b]pyridine-6-carboxamide]",46.2 nM
6,"C[C@H](CO)Nc1c(C(=O)NC[C@@H](F)C(C)(C)O)cnc2sc(-c3ccccc3)nc12 [Example 6, N-((R)-2-fluoro-3-hydroxy-3-methylbutyl)-7-(((R)-1-hydroxypropan-2-yl)amino)-2-phenylthiazolo[5,4-b]pyridine-6-carboxamide]",39.8 nM
7,"C[C@H](CO)Nc1c(C(=O)NCCC(C)(C)O)cnc2sc(-c3ccccc3)nc12 [Example 7, (R)-N-(3-hydroxy-3-methylbutyl)-7-((1-hydroxypropan-2-yl)amino)-2-phenylthiazolo[5,4-b]pyridine-6-carboxamide]",172 nM
8,"C[C@H](CO)Nc1c(C(=O)NCCCN2CCOCC2)cnc2sc(-c3ccccc3)nc12 [Example 8, (R)-7-((1-hydroxypropan-2-yl)amino)-N-(3-morpholinopropyl)-2-phenylthiazolo[5,4-b]pyridine-6-carboxamide]",474 nM
9,"C[C@H](CO)Nc1c(C(=O)NCCC#N)cnc2sc(-c3ccccc3)nc12 [Example 9, (R)-N-(2-cyanoethyl)-7-((1-hydroxypropan-2-yl)amino)-2-phenylthiazolo[5,4-b]pyridine-6-carboxamide]",440 nM
10,"C[C@H](CO)Nc1c(C(=O)NCCS(C)(=O)=O)cnc2sc(-c3ccccc3)nc12 [Example 10, (R)-7-((1-hydroxypropan-2-yl)amino)-N-(2-(methylsulfonyl)ethyl)-2-phenylthiazolo[5,4-b] pyridine-6-carboxamide]",734 nM
11,"CC(C)Nc1c(C(=O)NC[C@@H](F)C(C)(C)O)cnc2sc(-c3cccnc3)nc12 [Example 11, (R)-N-(2-fluoro-3-hydroxy-3-methylbutyl)-7-(isopropylamino)-2-(pyridin-3-yl)thiazolo[5,4-b]pyridine-6-carboxamide]",12 nM
12,"CC(C)(O)CCNC(=O)c1cnc2sc(-c3cccnc3)nc2c1NC1CCOCC1 [Example 12, N-(3-hydroxy-3-methylbutyl)-2-(pyridin-3-yl)-7-((tetrahydro-2H-pyran-4-yl)amino) thiazolo[5,4-b]pyridine-6-carboxamide]",168 nM
13,"O=C(NCCN1CCC(O)CC1)c1cnc2sc(-c3cccnc3)nc2c1NC1CCOCC1 [Example 13, N-(2-(4-hydroxypiperidin-1-yl)ethyl)-2-(pyridin-3-yl)-7-((tetrahydro-2H-pyran-4-yl)amino)thiazolo[5,4-b]pyridine-6-carboxamide]",517 nM
14,"CC(C)(O)[C@H](F)CNC(=O)c1cnc2sc(-c3cccnc3)nc2c1NC1CCOCC1 [Example 14, (R)-N-(2-fluoro-3-hydroxy-3-methylbutyl)-2-(pyridin-3-yl)-7-((tetrahydro-2H-pyran-4-yl)amino)thiazolo[5,4-b]pyridine-6-carboxamide]",39.9 nM
15,"CC(C)Nc1c(C(=O)NC[C@@H](F)C(C)(C)O)cnc2sc(Nc3ccc(-n4cccn4)cc3)nc12 [Example 15, (R)-2-((4-(1H-pyrazol-1-yl)phenyl)amino)-N-(2-fluoro-3-hydroxy-3-methylbutyl)-7-(isopropylamino)thiazolo[5,4-b]pyridine-6-carboxamide]",2380 nM
16,"CC(C)Nc1c(C(=O)NC[C@@H](F)C(C)(C)O)cnc2sc(Nc3cccnc3)nc12 [Example 16, (R)-N-(2-fluoro-3-hydroxy-3-methylbutyl)-7-(isopropylamino)-2-(pyridin-3-ylamino)thiazolo[5,4-b]pyridine-6-carboxamide]",124 nM
17,"CC(C)Nc1c(C(=O)NC[C@@H](F)C(C)(C)O)cnc2sc(Nc3ccc(S(C)(=O)=O)cc3)nc12 [Example 17, (R)-N-(2-fluoro-3-hydroxy-3-methylbutyl)-7-(isopropylamino)-2-((4-(methylsulfonyl)phenyl)amino)thiazolo[5,4-b]pyridine-6-carboxamide]",797 nM

row,SMILES,IC50
1,"CC(C)Nc1c(C(=O)NCCC(F)(F)F)cnc2sc(-c3cccnc3)nc12 [Example 18, 7-(isopropylamino)-2-(pyridin-3-yl)-N-(3,3,3-trifluoropropyl) thiazolo[5,4-b]pyridine-6-carboxamide]",323 nM
2,"CC(C)Nc1c(C(=O)NCCC2CC2)cnc2sc(-c3cccnc3)nc12 [Example 19, N-(2-cyclopropylethyl)-7-(isopropylamino)-2-(pyridin-3-yl)thiazolo[5,4-b]pyridine-6-carboxamide]",72.6 nM
3,"CC(=O)O[C@H]1CC[C@H](NC(=O)c2cnc3sc(-c4cccnc4)nc3c2NC(C)C)CC1 [Example 20, (1r,4r)-4-(7-(isopropylamino)-2-(pyridin-3-yl)thiazolo[5,4-b]pyridine-6-carboxamido)cyclohexyl acetate]",12.3 nM
4,"CC(C)Nc1c(C(=O)NC[C@@H](F)C(C)(C)O)cnc2sc(-c3ccc4nccn4c3)cc12 [Example 26, (R)-N-(2-fluoro-3-hydroxy-3-methylbutyl)-2-(imidazo[1,2-a]pyridin-6-yl)-4-(isopropylamino)thieno[2,3-b]pyridine-5-carboxamide]",27.7 nM
5,"CC(C)Nc1c(C(=O)NC[C@@H](F)C(C)(C)O)cnc2sc(-c3c[nH]c4ncc(F)cc34)cc12 [Example 28, (R)-2-(5-fluoro-1H-pyrrolo[2,3-b]pyridin-3-yl)-N-(2-fluoro-3-hydroxy-3-methylbutyl)-4-(isopropylamino)thieno[2,3-b]pyridine-5-carboxamide]",75.6 nM
6,"CC(C)CCNC(=O)c1cnc2sc(-c3cccnc3)cc2c1NC(C)C [Example 31, N-isopentyl-4-(isopropylamino)-2-(pyridin-3-yl) thieno[2,3-b]pyridine-5-carboxamide]",35.1 nM
7,"CC(C)CCNC(=O)c1cnc2sc(-c3ccnnc3)cc2c1NC(C)C [Example 33, N-isopentyl-4-(isopropylamino)-2-(pyridazin-4-yl)thieno[2,3-b]pyridine-5-carboxamide]",29 nM
8,"COCCNC(=O)c1cnc2sc(-c3cncs3)cc2c1NC(C)C [Example 34, 4-(isopropylamino)-N-(2-methoxyethyl)-2-(thiazol-5-yl)thieno[2,3-b]pyridine-5-carboxamide]",30 nM
9,"Cc1cc(CNC(=O)c2cnc3sc(-c4cncs4)cc3c2NC(C)C)on1 [Example 35, 4-(isopropylamino)-N-((3-methylisoxazol-5-yl)methyl)-2-(thiazol-5-yl)thieno[2,3-b]pyridine-5-carboxamide]",59.7 nM
10,"CC(C)Nc1c(C(=O)N[C@H]2CC[C@H](O)CC2)cnc2sc(-c3cncs3)cc12 [Example 36, N-((1r,4r)-4-hydroxycyclohexyl)-4-(isopropylamino)-2-(thiazol-5-yl)thieno[2,3-b]pyridine-5-carboxamide]",20.6 nM
11,"CC(C)Nc1c(C(=O)NCCC2(CO)CC2)cnc2sc(-c3cncs3)cc12 [Example 37, N-(2-(1-(hydroxymethyl)cyclopropyl)ethyl)-4-(isopropylamino)-2-(thiazol-5-yl)thieno[2,3-b]pyridine-5-carboxamide]",384 nM
12,"CC(C)Nc1c(C(=O)NC(CCO)C2CC2)cnc2sc(-c3cncs3)cc12 (stereo not drawn) [Example 39, N-(1-cyclopropyl-3-hydroxypropyl)-4-(isopropylamino)-2-(thiazol-5-yl)thieno[2,3-b]pyridine-5-carboxamide]",554 nM
13,"CC(C)Nc1c(C(=O)N[C@H](C)CCO)cnc2sc(-c3cncs3)cc12 [Example 40, (R)-N-(4-hydroxybutan-2-yl)-4-(isopropylamino)-2-(thiazol-5-yl)thieno[2,3-b]pyridine-5-carboxamide]",126 nM
14,"CC(C)Nc1c(C(=O)NCc2cocn2)cnc2sc(-c3cncs3)cc12 [Example 41, 4-(isopropylamino)-N-(oxazol-4-ylmethyl)-2-(thiazol-5-yl) thieno[2,3-b]pyridine-5-carboxamide]",21.6 nM
15,"CC(=O)N[C@H]1CC[C@H](NC(=O)c2cnc3sc(-c4cncs4)cc3c2NC(C)C)CC1 [Example 45, N-((1r,4r)-4-acetamidocyclohexyl)-4-(isopropylamino)-2-(thiazol-5-yl)thieno[2,3-b]pyridine-5-carboxamide]",3.7 nM
16,"CC(C)Nc1c(C(=O)NCC(C)(C)CO)cnc2sc(-c3cncs3)cc12 [Example 46, N-(3-hydroxy-2,2-dimethylpropyl)-4-(isopropylamino)-2-(thiazol-5-yl)thieno[2,3-b]pyridine-5-carboxamide]",272 nM
